Assay results reported in the supplement of paper PMC5908809.

Key:
[1] = test system: normal NK cells expanded with K562-aAPC; test: drug sensitivity score (DSS) (DSS units); higher = more sensitive; extreme values may be limits of the assay; conditions: 72 h; IL-2 2.5 ng/mL
Protocol: (§1)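 Drug sensitivity and resistance testing on K562-aAPC-expanded normal NK cells: 5 concentrations (10-fold steps over a 10,000-fold range), 72 h at 37 °C, viability by CellTiter-Glo normalised to DMSO and benzethonium chloride controls; DSS from the fitted curve.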

DERL-7 (IL-2 2.5 ng/mL) [2] = test: percent inhibition of viability; higher = more inhibition; conditions: 72 h
[3] = test system: normal primary NK cells, pool 1 (3 donors), resting (IL-2 0 ng/mL); test: as above; conditions: 72 h
KHYG-1 (IL-2 2.5 ng/mL) [4] = test: as above; conditions: 72 h
[5] = test system: normal primary NK cells, pool 3 (3 donors) (IL-2 2.5 ng/mL); test: as above; conditions: 72 h
NKL (IL-2 2.5 ng/mL) [6] = test: as above; conditions: 72 h
SNK-6 (IL-2 2.5 ng/mL) [7] = test: as above; conditions: 72 h
NK-92 (IL-2 2.5 ng/mL) [8] = test: as above; conditions: 72 h
IMC-1 (IL-2 20 ng/mL) [9] = test: as above; conditions: 72 h
[10] = test system: normal primary NK cells, pool 2 (3 donors) (IL-2 2.5 ng/mL); test: as above; conditions: 72 h
NK-YS (IL-2 2.5 ng/mL) [11] = test: as above; conditions: 72 h
[12] = test system: normal primary NK cells, pool 1 (3 donors) (IL-2 2.5 ng/mL); test: as above; conditions: 72 h
YT (IL-2 2.5 ng/mL) [13] = test: as above; conditions: 72 h
KAI3 (IL-2 2.5 ng/mL) [14] = test: as above; conditions: 72 h
DERL-7 (IL-2 2.5 ng/mL) [15] = test: drug sensitivity score (DSS) (DSS units); higher = more sensitive; extreme values may be limits of the assay; conditions: 72 h
[16] = test system: normal primary NK cells, pool 1 (3 donors), resting (IL-2 0 ng/mL); test: as above; conditions: 72 h
KHYG-1 (IL-2 2.5 ng/mL) [17] = test: as above; conditions: 72 h
[18] = test system: normal primary NK cells, pool 3 (3 donors) (IL-2 2.5 ng/mL); test: as above; conditions: 72 h
NKL (IL-2 2.5 ng/mL) [19] = test: as above; conditions: 72 h
SNK-6 (IL-2 2.5 ng/mL) [20] = test: as above; conditions: 72 h
NK-92 (IL-2 2.5 ng/mL) [21] = test: as above; conditions: 72 h
IMC-1 (IL-2 20 ng/mL) [22] = test: as above; conditions: 72 h
[23] = test system: normal primary NK cells, pool 2 (3 donors) (IL-2 2.5 ng/mL); test: as above; conditions: 72 h
NK-YS (IL-2 2.5 ng/mL) [24] = test: as above; conditions: 72 h
[25] = test system: normal primary NK cells, pool 1 (3 donors) (IL-2 2.5 ng/mL); test: as above; conditions: 72 h
YT (IL-2 2.5 ng/mL) [26] = test: as above; conditions: 72 h
KAI3 (IL-2 2.5 ng/mL) [27] = test: as above; conditions: 72 h
[28] = test system: normal NK cells expanded with K562-aAPC; test: percent inhibition of viability; higher = more inhibition; conditions: 72 h, IL-2 2.5 ng/mL
Protocol: as §1

COc1cc2c(Oc3ccc(NC(=O)C4(C(=O)Nc5ccc(F)cc5)CC4)cc3F)ccnc2cc1OCCCN1CCOCC1 [Foretinib] (max concentration tested 1000 nM)
Conditions | drug sensitivity score
DERL-7 (IL-2 2.5 ng/mL) [15] | 3.35
IMC-1 (IL-2 20 ng/mL) [22] | 1.64
KAI3 (IL-2 2.5 ng/mL) [27] | 2.98
KHYG-1 (IL-2 2.5 ng/mL) [17] | 5.21
NK-92 (IL-2 2.5 ng/mL) [21] | 4.04
NK-YS (IL-2 2.5 ng/mL) [24] | 5.79
NKL (IL-2 2.5 ng/mL) [19] | 5
SNK-6 (IL-2 2.5 ng/mL) [20] | 2.27
YT (IL-2 2.5 ng/mL) [26] | 3.73
[1] | 5.37
[16] | 4.1
[18] | 0.32
[23] | 0
[25] | 1.19

percent inhibition of viability [%]
Conditions | 0.1 nM | 1 nM | 10 nM | 100 nM | 1000 nM
DERL-7 (IL-2 2.5 ng/mL) [2] | 3.24 | -0.68 | 2.22 | -8.07 | 70.8
IMC-1 (IL-2 20 ng/mL) [9] | -6.29 | -10.2 | -1.31 | 3.45 | 27.1
KAI3 (IL-2 2.5 ng/mL) [14] | 3.99 | -0.1 | 0.67 | 11.6 | 31.7
KHYG-1 (IL-2 2.5 ng/mL) [4] | 1.36 | -8.14 | -3.69 | 18.4 | 49.9
NK-92 (IL-2 2.5 ng/mL) [8] | -17.3 | -12.3 | -5.79 | 19.9 | 34.9
NK-YS (IL-2 2.5 ng/mL) [11] | -1.72 | -7.82 | -1.95 | 11.5 | 70.2
NKL (IL-2 2.5 ng/mL) [6] | -12.1 | -16.5 | -5.45 | 16.3 | 49.9
SNK-6 (IL-2 2.5 ng/mL) [7] | -1.08 | -15.3 | -7.01 | -4.86 | 49.9
YT (IL-2 2.5 ng/mL) [13] | -1.93 | -8.62 | -2.43 | 13.9 | 37.3
[3] | -4.45 | 1.67 | 17.2 | 10.1 | 18.4
[5] | -8.78 | -7.33 | 8.91 | 6.17 | 10.7
[10] | -11.2 | -4.47 | 3.97 | -2.36 | -2.41
[12] | 3.18 | -0.67 | 9.57 | 11.1 | 15.9
[28] | -5.4 | -5.19 | -3.74 | 12.6 | 61

Cc1nc(Nc2ncc(C(=O)Nc3c(C)cccc3Cl)s2)cc(N2CCN(CCO)CC2)n1 [Dasatinib] (max concentration tested 1000 nM)
Conditions | drug sensitivity score
DERL-7 (IL-2 2.5 ng/mL) [15] | 1.68
IMC-1 (IL-2 20 ng/mL) [22] | 0
KAI3 (IL-2 2.5 ng/mL) [27] | 2.92
KHYG-1 (IL-2 2.5 ng/mL) [17] | 0.45
NK-92 (IL-2 2.5 ng/mL) [21] | 0.7
NK-YS (IL-2 2.5 ng/mL) [24] | 2.02
NKL (IL-2 2.5 ng/mL) [19] | 6.85
SNK-6 (IL-2 2.5 ng/mL) [20] | 2.07
YT (IL-2 2.5 ng/mL) [26] | 4.71
[1] | 1.3
[16] | 0
[18] | 0
[23] | 0
[25] | 6.61

percent inhibition of viability [%]
Conditions | 0.1 nM | 1 nM | 10 nM | 100 nM | 1000 nM
DERL-7 (IL-2 2.5 ng/mL) [2] | 2.24 | 8.32 | 14.1 | 5.36 | 23.2
IMC-1 (IL-2 20 ng/mL) [9] | -4.24 | -3.41 | -7.41 | -6.36 | 8.01
KAI3 (IL-2 2.5 ng/mL) [14] | -0.36 | 1.21 | 4.62 | 14.5 | 34
KHYG-1 (IL-2 2.5 ng/mL) [4] | -4.78 | -5.41 | 2.42 | 4.68 | 15
NK-92 (IL-2 2.5 ng/mL) [8] | -15.2 | -20 | -16.4 | -1 | 22.6
NK-YS (IL-2 2.5 ng/mL) [11] | -0.77 | -3.69 | 1.85 | 9.09 | 26.2
NKL (IL-2 2.5 ng/mL) [6] | -6.62 | -1.79 | 12 | 30.8 | 50.2
SNK-6 (IL-2 2.5 ng/mL) [7] | 26.1 | -6.71 | -10.2 | 3.42 | 33.2
YT (IL-2 2.5 ng/mL) [13] | -6.9 | -3.71 | 0.56 | 23 | 39.6
[3] | -8.65 | 23.5 | 15.4 | 12.1 | 3.61
[5] | 0.39 | 14.8 | -5.88 | -19.1 | -19.4
[10] | -3.84 | 18.3 | 1.6 | 0.44 | 6.62
[12] | -0.11 | 19.3 | 13.1 | 15.4 | 19.5
[28] | -0.95 | 4.04 | 19.2 | 3.69 | 18.7

CC[C@@H]1C(=O)N(C)c2cnc(Nc3ccc(C(=O)N[C@H]4CC[C@H](N5CCN(CC6CC6)CC5)CC4)cc3OC)nc2N1C(C)C [Volasertib] (max concentration tested 1000 nM)
Conditions | drug sensitivity score
DERL-7 (IL-2 2.5 ng/mL) [15] | 20.2
IMC-1 (IL-2 20 ng/mL) [22] | 17.2
KAI3 (IL-2 2.5 ng/mL) [27] | 8.7
KHYG-1 (IL-2 2.5 ng/mL) [17] | 18.4
NK-92 (IL-2 2.5 ng/mL) [21] | 21.2
NK-YS (IL-2 2.5 ng/mL) [24] | 11.7
NKL (IL-2 2.5 ng/mL) [19] | 11.5
SNK-6 (IL-2 2.5 ng/mL) [20] | 16.3
YT (IL-2 2.5 ng/mL) [26] | 13.8
[1] | 9.75
[16] | 0.37
[18] | 0
[23] | 1.57
[25] | 1.12

percent inhibition of viability [%]
Conditions | 0.1 nM | 1 nM | 10 nM | 100 nM | 1000 nM
DERL-7 (IL-2 2.5 ng/mL) [2] | 6.13 | 1.89 | 15.1 | 98.3 | 95
IMC-1 (IL-2 20 ng/mL) [9] | -3.21 | -4.2 | 2.24 | 94 | 93.2
KAI3 (IL-2 2.5 ng/mL) [14] | 2.62 | 2.62 | 15 | 38.7 | 51.1
KHYG-1 (IL-2 2.5 ng/mL) [4] | -0.67 | -1.62 | 4.85 | 98.4 | 99.2
NK-92 (IL-2 2.5 ng/mL) [8] | -14.8 | -9.97 | 33.1 | 92 | 82.6
NK-YS (IL-2 2.5 ng/mL) [11] | -1.3 | 1.64 | 5.27 | 59 | 51
NKL (IL-2 2.5 ng/mL) [6] | -8.73 | -9.25 | -5.94 | 65.4 | 40.5
SNK-6 (IL-2 2.5 ng/mL) [7] | 8.84 | 8.4 | 39 | 65.5 | 42.1
YT (IL-2 2.5 ng/mL) [13] | -2.13 | 1.45 | 2.63 | 73.9 | 70.2
[3] | 8.74 | -8.57 | -4.01 | 0.78 | 16
[5] | -12.7 | -9.54 | -12.6 | -7.36 | 8.33
[10] | -9.16 | -9.48 | -8.67 | -4.83 | 38.6
[12] | -2.22 | -7 | -3.63 | -0.83 | 28.3
[28] | 0.48 | -0.94 | -1.6 | 54.3 | 54.2
